From article PMC8037814, “Polymorphic Characterization, Pharmacokinetics, and Anti-Inflammatory Activity of Ginsenoside Compound K Polymorphs” (Molecules, 2021)
Where “and” joins values, the source holds several entries; their conditions need not be identical. Equal entries are not always repeated. Where two headings read alike, the source gives them in different places.

What was measured:
[1] = test system: carrageenan-induced acute paw inflammation; assay: Paw swelling test induced by carrageenan in rats; type: in vivo, Sprague-Dawley rats; design: paw volume: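 right hind paw volume measured with a plethysmometer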; settings: listed as From I; for paw volume / paw edema: mean±SD of 6 rats; for edema inhibition: versus model group
Method in brief: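 Rats (six per group, half of each sex) received compound at 10 or 20 mg/kg, suspended in 0.5% CMC-Na, before carrageenan challenge. Paw edema (%) = (Vn − V0)/V0 × 100 over time; inhibitory rate relative to model group, compared by t-test.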

[2] = Pharmacokinetics after oral administration of CK polymorphs in rats (20 mg/kg); type: in vivo, Sprague-Dawley rats; settings: p.o. 20 mg/kg, individual rats 1-3
[3] = as above; type: in vivo, Sprague-Dawley rats; settings: 20 mg/kg; for bioavailability: p.o. 20 mg/kg vs i.v. 10 mg/kg, dose-adjusted AUC ratio, read-out: Fabs (absolute bioavailability); for half-life: read-out: t1/2z (converted); for Vd/F: read-out: Vz/F
[4] = DSC thermal analysis of CK polymorphs; type: physicochemical; settings: 20 K/min from 20 to 400 °C, dry nitrogen flow
Experimental: DSC measurements were performed on a DSC204 Phoenix calorimeter (NETZSCH, Selb, Germany) with a heating rate of 20 K/min from 20 to 400 °C. The dry nitrogen flow was about 50 mL/min. Data were analyzed using NETZSCH analysis software.

[5] = 10 mg/kg p.o. qd 3 days, 3h after carrageenan
[6] = 10 mg/kg p.o. qd 3 days, 4h after carrageenan
[7] = 10 mg/kg p.o. qd 3 days, 5h after carrageenan
[8] = 10 mg/kg p.o. qd 3 days, 6h after carrageenan
[9] = 20 mg/kg p.o. qd 3 days, 3h after carrageenan
[10] = 20 mg/kg p.o. qd 3 days, 4h after carrageenan
[11] = 20 mg/kg p.o. qd 3 days, 5h after carrageenan
[12] = 20 mg/kg p.o. qd 3 days, 6h after carrageenan
[13] = female rats, p.o. 20 mg/kg, mean ± SD (n = 3)
[14] = female, Sprague-Dawley, rat, plasma, po, female rats, p.o. 20 mg/kg, mean ± SD (n = 3)
[15] = male rats, p.o. 20 mg/kg, mean ± SD (n = 3)
[16] = male, Sprague-Dawley, rat, plasma, po, male rats, p.o. 20 mg/kg, mean ± SD (n = 3)

CC(C)=CCCC(C)(OC1OC(CO)C(O)C(O)C1O)C1CCC2(C)C1C(O)CC1C3(C)CCC(O)C(C)(C)C3CCC12C [Form I, 20-O-β-D-glucopyranosyl-20(S)-protopanaxadiol]
paw volume ([1]; 10 mg/kg p.o. qd 3 days, 0h (before carrageenan)): 1.60±0.13
paw edema [1, 5]: 61.02±11.75%
paw volume [1, 5]: 2.57±0.14
edema inhibition [1, 5]: 5.06%
paw edema [1, 6]: 51.30±10.45%
paw volume [1, 6]: 2.42±0.19
edema inhibition [1, 6]: 17.74%
paw edema [1, 7]: 34.69±9.89%
paw volume [1, 7]: 2.15±0.16
edema inhibition [1, 7]: 32.99%
paw edema [1, 8]: 27.53±8.13%
paw volume [1, 8]: 2.03±0.08
edema inhibition [1, 8]: 29.97%
paw volume ([1]; 20 mg/kg p.o. qd 3 days, 0h (before carrageenan)): 1.62±0.13
paw edema [1, 9]: 52.64±19.00%
paw volume [1, 9]: 2.45±0.16
edema inhibition [1, 9]: 18.10%
paw edema [1, 10]: 43.25±16.04%
paw volume [1, 10]: 2.30±0.11
edema inhibition [1, 10]: 30.65%
paw edema [1, 11]: 31.96±15.31%
paw volume [1, 11]: 2.12±0.08
edema inhibition [1, 11]: 38.25%
paw edema [1, 12]: 24.52±13.39%
paw volume [1, 12]: 2.00±0.09
edema inhibition [1, 12]: 37.62%
AUC(0-t) ([2]; female rats): 2.01726 µg·h/mL and 2.12078 µg·h/mL and 2.47006 µg·h/mL
AUC(0-∞) ([2]; female rats): 2.05082 µg·h/mL and 2.124 µg·h/mL and 2.47325 µg·h/mL
CLz/F ([2]; female rats): 9.75 L/h/kg and 9.42 L/h/kg and 8.09 L/h/kg
Cmax ([2]; female rats): 0.44001 µg/mL and 0.32566 µg/mL and 0.59433 µg/mL
Vz/F ([2]; female rats): 56.64 L/kg and 34.89 L/kg and 29.88 L/kg
AUC(0-t) ([2]; male rats): 0.76248 µg·h/mL and 1.61279 µg·h/mL and 1.07422 µg·h/mL
AUC(0-∞) ([2]; male rats): 0.76282 µg·h/mL and 1.70908 µg·h/mL and 1.09209 µg·h/mL
CLz/F ([2]; male rats): 26.22 L/h/kg and 11.70 L/h/kg and 18.31 L/h/kg
Cmax ([2]; male rats): 0.1686 µg/mL and 0.42566 µg/mL and 0.18398 µg/mL
t1/2z ([2]; male rats): 2.87 h and 3.98 h and 2.06 h
t1/2z ([3]; female rats, p.o. 20 mg/kg, individual rats 1-3): 2.57 h and 2.56 h
AUC(0–t) [3, 13]: 2.2027 ± 0.23726 µg·h/mL
AUC(0–∞) [3, 13]: 2.216 ± 0.22574 µg·h/mL
CLz/F [3, 13]: 9.09 ± 0.880 L/h/kg
Cmax [3, 13]: 0.45333 ± 0.13483 µg/mL and 0.4533 ± 0.1348 µg/mL
Vz/F [3, 13]: 40.5 ± 14.2 L/kg
t1/2z [3, 13]: 3.0 ± 0.84 h
bioavailability ([3]; female, Sprague-Dawley, rat, plasma, po, female rats): 6.84%
half-life ([3]; female, Sprague-Dawley, rat, plasma, po, female rats, p.o. 20 mg/kg, individual rats 1-3): 4.03 h
AUC(0-inf) [3, 14]: 2.22 ± 0.226 µg·h/mL
Vd/F [3, 14]: 40.5 ± 14.2 L/kg
half-life [3, 14]: 3.05 ± 0.84 h
Vz/F ([3]; male rats, p.o. 20 mg/kg, individual rats 1-3): 77.79 L/kg and 48.49 L/kg and 105.00 L/kg
AUC(0–t) [3, 15]: 1.1498 ± 0.43017 µg·h/mL
AUC(0–∞) [3, 15]: 1.188 ± 0.48037 µg·h/mL
CLz/F [3, 15]: 18.7 ± 7.27 L/h/kg
Cmax [3, 15]: 0.2594 ± 0.1442 µg/mL
Vz/F [3, 15]: 77.1 ± 28.3 L/kg
t1/2z [3, 15]: 3.0 ± 0.96 h
bioavailability ([3]; male, Sprague-Dawley, rat, plasma, po, male rats): 3.92%
AUC(0-t) [3, 16]: 1.15 ± 0.43 µg·h/mL
CL/F ([3]; male, Sprague-Dawley, rat, plasma, po, male rats, p.o. 20 mg/kg, mean ± SD (n = 3), read-out: CLz/F (converted)): 18.7 L/h/kg
Cmax ([3]; male, Sprague-Dawley, rat, plasma, po, male rats, p.o. 20 mg/kg, mean ± SD (n = 3), read-out: Cmax): 0.259 ± 0.144 µg/mL
Vd/F [3, 16]: 77.1 ± 28.3 L/kg
half-life [3, 16]: 2.97 ± 0.96 h
DSC onset of the decomposition endotherm (thermodynamical stability) [4]: 267.5 °C
